According to US11439148B2, “Pyrimidine derivatives” (SYNGENTA PARTICIPATIONS AG, priority 2017, dated 2022):
Where “and” joins values, the source holds several entries; their conditions need not be identical. Equal values may be shown once.

Key:
Format in all cases: in vivo
[1] = tested on: Abutilon theophrasti (ABUTH); assay: Adjuvant efficacy with fomesafen, glasshouse spray test; conditions: fomesafen sodium salt SL, mean over 100 and 200 g/ha and 3 replicates; adjuvant 0.2% v/v (none in No Adjuvant rows); % leaf area killed, 21 days after application; Tests 1-4 separate runs
Method: (§1) The efficacy of adjuvants 1-12 as adjuvants for the herbicide fomesafen (as the sodium salt) were tested in a glasshouse against four weed species, sown into standard soil in pots and cultivated under controlled conditions in a glasshouse (at 24/18° C. day/night; 16 hours light, 65% humidity). Fomesafen sodium salt was added to the spray tank as a standard SL (soluble concentrate) formulation.
(§2) The spray tests were also carried out using fomesafen in conjunction with adjuvants 1-12. Unless otherwise stated, the adjuvants were added to the spray solution at a rate of 0.2% v/v. All spray solutions also contained 12.5% v/v of iso-Propanol to normalise the retention of the sprays on the hydrophobic plant surfaces. The weed species and their BBCH growth stage at spraying were Abutilon theophrasti (ABUTH; growth stage 12-13), Chenopodium album (CHEAL; growth stage 15), Ipomea hederacea (IPOHE; growth stage 12), and Setaria viridis (SETVI; growth stage 14). Each spray test was replicated three times. The test plants were then grown in a glasshouse under controlled conditions (at 24/18° C. day/night; 16 hours light; 65% humidity) and watered twice a day.
(§3) The efficacy of the herbicide was assessed visually and expressed as a percentage of the leaf area killed. Samples were assessed at a time period of 21 days following application. The results shown in Table 2 below are mean averages over the two rates of fomesafen, the three replicates […].

[2] = tested on: Chenopodium album (CHEAL); assay: as above; conditions: fomesafen sodium salt SL, mean over 100 and 200 g/ha and 3 replicates; adjuvant 0.2% v/v (none in No Adjuvant rows); % leaf area killed, 21 days after application; Tests 1-4 separate runs
Method: as §1, §2, §3

Ipomea hederacea (IPOHE) = assay: as above; conditions: fomesafen sodium salt SL, mean over 100 and 200 g/ha and 3 replicates; adjuvant 0.2% v/v (none in No Adjuvant rows); % leaf area killed, 21 days after application; Tests 1-4 separate runs
Method: as §1, §2, §3

Setaria viridis (SETVI) [3] = assay: as above; conditions: fomesafen sodium salt SL, mean over 100 and 200 g/ha and 3 replicates; adjuvant 0.2% v/v (none in No Adjuvant rows); % leaf area killed, 21 days after application; Tests 1-4 separate runs
Method: as §1, §2, §3

[4] = tested on: Alopecurus myosuroides (ALOMY); assay: Adjuvant efficacy with pinoxaden, glasshouse spray test; conditions: pinoxaden EC, mean over 7.5 and 15 g/ha and 3 replicates; adjuvant 0.2% v/v (none in No Adjuvant rows); % leaf area killed, 21 days after application; Tests 1-4 separate runs
Method: as §1, with “pinoxaden” for “fomesafen (as the sodium salt)”, “20/16°” for “24/18°”, “light;” for “light,”, “Pinoxaden” for “Fomesafen sodium salt”, “EC (emulsifiable” for “SL (soluble”
(§4) The spray tests were also carried out using pinoxaden in conjunction with adjuvants 1-12. The adjuvants were added to the spray solution at a rate of 0.2% v/v unless otherwise stated. All spray solutions also contained 10% w/w of iso-Propanol. The weed species and their BBCH growth stage at spraying were Avena fatua (AVEFA; growth stage 12), Lolium perenne (LOLPE; growth stage 13), Alopecurus myosuroides (ALOMY; growth stage 13), and Setaria viridis (SETVI; growth stage 13-14). Each spray test was replicated three times. The test plants were then grown in a glasshouse under controlled conditions (at 20/16° C. day/night; 16 hours light; 65% humidity) and watered twice a day. The efficacy of the herbicide was assessed visually and expressed as a percentage of the leaf area killed. Samples were assessed at a time period of 21 days following application. The results shown in Table 4 below are mean averages over the two rates of pinoxaden, and the three replicates.

Avena fatua (AVEFA) = assay: as above; conditions: pinoxaden EC, mean over 7.5 and 15 g/ha and 3 replicates; adjuvant 0.2% v/v (none in No Adjuvant rows); % leaf area killed, 21 days after application; Tests 1-4 separate runs
Method: as §1, with “pinoxaden” for “fomesafen (as the sodium salt)”, “20/16°” for “24/18°”, “light;” for “light,”, “Pinoxaden” for “Fomesafen sodium salt”, “EC (emulsifiable” for “SL (soluble”
as §4

Lolium perenne (LOLPE) = assay: as above; conditions: pinoxaden EC, mean over 7.5 and 15 g/ha and 3 replicates; adjuvant 0.2% v/v (none in No Adjuvant rows); % leaf area killed, 21 days after application; Tests 1-4 separate runs
Method: as §1, with “pinoxaden” for “fomesafen (as the sodium salt)”, “20/16°” for “24/18°”, “light;” for “light,”, “Pinoxaden” for “Fomesafen sodium salt”, “EC (emulsifiable” for “SL (soluble”
as §4

Setaria viridis (SETVI) [5] = assay: as above; conditions: pinoxaden EC, mean over 7.5 and 15 g/ha and 3 replicates; adjuvant 0.2% v/v (none in No Adjuvant rows); % leaf area killed, 21 days after application; Tests 1-4 separate runs
Method: as §1, with “pinoxaden” for “fomesafen (as the sodium salt)”, “20/16°” for “24/18°”, “light;” for “light,”, “Pinoxaden” for “Fomesafen sodium salt”, “EC (emulsifiable” for “SL (soluble”
as §4

[6] = tested on: Digitaria sanguinalis (DIGSA); assay: Adjuvant efficacy with mesotrione, glasshouse spray test; conditions: mesotrione SC, mean over 30 and 60 g/ha and 3 replicates; adjuvant 0.2% v/v (none in No Adjuvant rows); % leaf area killed, 21 days after application; Tests 1-4 separate runs
Method: (§5) The efficacy of adjuvants 1-12 as an adjuvant for the herbicide mesotrione was tested in a glasshouse against four weed species sown into standard soil in pots and cultivated under controlled conditions in a glasshouse (at 24/18° C. day/night; 16 hours light; 65% humidity). Mesotrione was added to the spray tank as a standard SC (suspension concentrate) formulation.
(§6) The spray tests were also carried out using mesotrione in conjunction with adjuvants 1-12. The adjuvants were added to the spray solution at a rate of 0.2% v/v unless otherwise stated. All spray solutions also contained 10% w/w of iso-Propanol. The weed species and their BBCH growth stage at spraying were Brachiaria platyphylla (BRAPP; growth stage 13-14) or Brachiaria plantaginea (BRAPL; growth stage 13-14), Commelina benghalensis (COMBE; growth stage 13), Digitaria sanguinalis (DIGSA; growth stage 14), and Polygonum convolvulus (POLCO; growth stage 13-14). Each spray test was replicated three times.
(§7) The test plants were then grown in a glasshouse under controlled conditions (at 24/18° C. day/night; 16 hours light; 65% humidity) and watered twice a day. The efficacy of the herbicide was assessed visually and expressed as a percentage of the leaf area killed. Samples were assessed at a time period of 21 days following application. The results shown in Table 3 below are mean averages over the two rates of mesotrione and the three replicates.

[7] = tested on: Polygonum convolvulus (POLCO); assay: as above; conditions: mesotrione SC, mean over 30 and 60 g/ha and 3 replicates; adjuvant 0.2% v/v (none in No Adjuvant rows); % leaf area killed, 21 days after application; Tests 1-4 separate runs
Method: as §5, §6, §7

[8] = tested on: four weed species (ABUTH, CHEAL, IPOHE, SETVI); assay: Adjuvant efficacy with fomesafen, glasshouse spray test, average over all species; conditions: fomesafen sodium salt SL, mean over 100 and 200 g/ha, adjuvant 0.2% v/v (none in No Adjuvant rows), 21 days, average of ABUTH
Method: as §1, §2, §3

SMILES | Mean % Herbicidal Activity ABUTH [1] | Mean % Herbicidal Activity CHEAL [2] | Mean % Herbicidal Activity IPOHE (Ipomea hederacea (IPOHE)) | Mean % Herbicidal Activity SETVI (Setaria viridis (SETVI) [3]) | Mean % Herbicidal Activity ALOMY [4] [%] | Mean % Herbicidal Activity AVEFA (Avena fatua (AVEFA)) [%] | Mean % Herbicidal Activity LOLPE (Lolium perenne (LOLPE)) [%] | Mean % Herbicidal Activity SETVI (Setaria viridis (SETVI) [5]) [%] | Mean % Herbicidal Activity DIGSA [6] [%] | Mean % Herbicidal Activity POLCO [7] [%] | Mean % Herbicidal Activity Average over all Species [8]
CCCCCCCCCOc1cc(OCCOCCOCCOCCOCCOCCOCCOC)ncn1 [Adjuvant 4] | 51% | 45% | 93% | 53% | 18 | 78 | 30 | 82 | 83 | 93 | 61%
CCCCCCCCCOc1cc(OCCOCCOCCOCCOCCOCCOCCOCCOCCOCCOC)ncn1 [Adjuvant 5] | 60% | 55% | 64% | 49% | 10 | 69 | 21 | 63 | 72 | 94 | 57%
CCCCCCCCC=CCCCCCCCCOc1cc(OCCOCCOCCOCCOCCOCCOCCOCCOCCOCCOC)ncn1 [Adjuvant 10] | 56% and 28% | 60% and 88% | 92% and 50% | 65% and 17% | 9 | 80 | 25 | 89 | 84 | 95 | 68% and 46%
CCCCCCCCCCCCOc1cc(OCCOCCOCCOCCOCCOCCOCCOC)ncn1 [Adjuvant 6] | 31% | 80% | 64% | 25% | 23 | 82 | 62 | 87 | 83 | 84 | 50%
CCCCCCCCC=CCCCCCCCCOc1cc(OCCOCCOC)ncn1 [Adjuvant 9] | 52% | 64% | 88% | 64% | 17 | 83 | 40 | 91 | 82 | 92 | 67%
CCCCCCOc1cc(OCCOCCOCCOCCOCCOCCOCCOCCOCCOCCOC)ncn1 [Adjuvant 2] | 57% | 68% | 95% | 53% | 16 | 56 | 28 | 87 | 79 | 94 | 68%
